Measured values: patent US20100292306A1, “Compositions And Methods For The Treatment Of Muscular Dystrophy” (priority 2005, published 2010)
Entries after “also recorded” stand apart in the source; their conditions may differ.

Test system: mdx mice
Assay: Noninvasive whole body tension (WBT) measurement of forward pulling tensions
Format: in vivo
From the text: FIG. 18 presents individual “forward pulling tensions” (FPTs; upward deflections) recorded from a PDTC-treated mouse (Series 2) using the whole body tension (WBT) technique (Carlson and Makiejus, 1990). The rank order of FPTs from highest to lowest is indicated by the numbers in the figure. […] In the Series 2 experiments, WBT measurements were obtained from each of the saline-injected and PDTC-injected mice on days 0, 9, 21 and 40 of the experiment.
As a first step in examining the potential effects of PDTC treatment on WBT tension development, the slope of the decline in FPTs was evaluated for each recording session for each mouse examined in the Series 2 experiments (FIG. 19A, 19B). This measure essentially provides a “fatigue index” (FI) since the slope of the decline in FPTs is a direct measure of the average magnitude of the decline in FPT per individual pull for rank-ordered pulls number 2 through 10. If 10 individual pulls obtained during the recording session have identical magnitudes representing the highest FPT, then the FI equals 0. In contrast, a 50% reduction in FPT per pull would produce an FI equal to −0.5.
To examine the potential effect of PDTC treatment on FI in age matched adult mdx mice, a pre-treatment FU was obtained during a typical recording session from each of 10 mdx mice used in the Series 2 investigations (age 9.5 to 16 months at beginning of study). Five of the mice were subsequently treated with daily injections of vehicle (HEPES buffered Ringer's solution) and 5 of the mice were treated with daily injections of 50 mg/kg PDTC. Recordings for each of the mice were subsequently obtained on days 9, 21, and 40 of the treatment period (e.g., FIG. 19). To determine the potential effects of treatment on FI, the FIs obtained on days 9, 21, and 40 (e.g., FIG. 19) were each normalized to the pre-treatment FI for each of the 10 mice used in the study. […] A decrease in the FI indicating a reduction in the average loss of tension per pull during the course of the study would produce normalized FIs less than one, no change in FI would be associated with normalized FIs equal to 1.0, and increases in FI would produce normalized FIs greater than 1.0.
Mdx (C57 Bl10-mdx) and nondystrophic (C57Bl10-SnJ) mice were obtained from Jackson laboratories and bred under conditions approved by the Institutional Animal Care and Use Committee (IACUC). All studies were performed in accordance with the guidelines provided by the IACUC. Male and female PDTC treated mdx mice received daily intraperitoneal (ip) injections of 50 mg/kg pyrollidine dithiocarbamate (PDTC; Sigma P8765) dissolved in sterile-filtered (0.2 μm) HEPES-buffered Ringers solution (147.5 mM NaCl, 5 mM KCl, 2 mM CaCl2, 11 mM glucose, 5 mM Hepes, pH 7.35). Age- and gender-matched groups of vehicle-treated mice received corresponding injections of HEPES Ringers. See Carlson et al., 2005. The PDTC experiments were conducted on two series of mature adult mdx mice (9.5-16 month; 19-20 months) and on a series of young adult (1 month) mice. In each case, the mice in the experimental and vehicle-treated groups were matched according to age and gender with an equal number of males and females in each group. WBT tension measurements were obtained prior to initiating treatment and on multiple occasions following at least 3 weeks (20 days) of treatment.
A group of 30 day-old mdx mice were exposed to daily ip injections (30 day) of 40 mg/kg UDCA (Sigma #5127; 2 mg/ml; N=12 experimental) in an isotonic saline vehicle (1.02% NaCl, pH 8.4,) or a synthetic taurine derivative of UDCA (tauroursodeoxycholic acid, TUDCA, SpA Laboratorio Farmacologico, Cenate Sotto, Italy; 6 mg/ml; N=4 experimental) administered in a saline vehicle (NaCl 6 g/l, KCl 0.3 g/l, CaCl2 0.2 g/l, Na acetate 4 g/l, 300 mosM/l, pH 6.1).
WBT measurements were obtained as indicated in Examples 5 through 7 by placing an approximately 0.5 inch square piece of adhesive tape around the tail about 1 inch from the tip. […]

[1] = individual 6 month mdx male, 50 mg/kg for 30 days (FIG. 34C)
[2] = mature mdx, Series 2 through 4, post-treatment (at least 20 days), p<0.05
[3] = mature mdx, Series 2 through 4, p<0.05

S=C(S)N1CCCC1 [PDTC, pyrrolidine dithiocarbamate]
functional reserve FR (WBT10/WBT5) (50 mg/kg 30 consecutive days from about 30 days of age, at 60 days): approximately 0.9
normalized fatigue index (FI), effect of treatment over days (Series 2, 50 mg/kg daily, Kruskal-Wallis p<0.05, Day 0 vs Day 9 and Day 40): significant effect
normalized FI vs vehicle-injected (Series 2, Day 40, p<0.05): significantly different
fatigue index (FI), combined post-treatment results (Series 2, Days 9, 21 and 40 combined, p<0.05 vs vehicle): reducing; also recorded: reduces
normalized FI vs vehicle-injected (Series 2, Days 9 and 21): failed to reach significance
FPT10 as percent of FPT1 [1]: approximately 77%
maximum FPT [1]: approximately 310 g
whole body strength (mature mdx mice): significantly increasing
WBT5 vs vehicle-injected [2]: elevated
WBT10 vs vehicle-injected [2]: elevated
FR (WBT10/WBT5) post-treatment vs pre-treatment [3]: increased
WBT10 post-treatment vs pre-treatment [3]: increased
increase in WBT5 relative to vehicle (young mdx, 60 days of age): did not reach statistical significance
increase in WBT10 relative to vehicle (young mdx, 60 days of age): did not reach statistical significance
FR relative to vehicle-injected mdx mice (young mdx, 60 days of age, p<0.01): increased; also recorded: prevents a decline
